Results taken from PubChem BioAssay (NCI).
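Values below derive from 48-hour exposures of cells grown in 96-well plates, with endpoints linearly interpolated between the two concentrations bracketing the appropriate inhibition level. TGI denotes the concentration required for complete inhibition of growth.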

What was measured:
Test in all cases: NCI anticancer screen, dose series, 48 h
MALME-3M melanoma = tested on: MALME-3M melanoma
HOP-62 NSCLC = tested on: HOP-62 NSCLC
UACC-257 melanoma = tested on: UACC-257 melanoma
NCI-H226 lung = tested on: NCI-H226 lung
SNB-75 CNS = tested on: SNB-75 CNS
NCI/ADR-RES ovarian = tested on: NCI/ADR-RES ovarian
MDA-MB-231 breast = tested on: MDA-MB-231 breast
CAKI-1 renal = tested on: CAKI-1 renal
A498 renal = tested on: A498 renal
IGROV1 ovarian = tested on: IGROV1 ovarian

Question: `O=C(/C(=C\C(=O)c1cccs1)c1ccsc1)c1ccc(Br)cc1` was tested. Which TGI (MALME-3M melanoma) did it give?
Answer: > 100 µM

Question: And the TGI (HOP-62 NSCLC)?
Answer: > 100 µM

Question: What about the TGI (UACC-257 melanoma) of the same compound?
Answer: > 100 µM

Question: What about the TGI (NCI-H226 lung) of the same compound?
Answer: > 100 µM

Question: And the TGI (SNB-75 CNS)?
Answer: > 100 µM

Question: And the TGI (NCI/ADR-RES ovarian)?
Answer: > 100 µM

Question: What about the TGI (MDA-MB-231 breast) of the same compound?
Answer: > 100 µM

Question: What about the TGI (CAKI-1 renal) of the same compound?
Answer: > 100 µM

Question: What about the TGI (A498 renal) of the same compound?
Answer: > 100 µM

Question: What about the TGI (IGROV1 ovarian) of the same compound?
Answer: > 100 µM

Question: `CCNc1ccc2c(c1)Cc1ccccc1-2` was tested. Which TGI (MALME-3M melanoma) did it give?
Answer: > 100 µM

Question: And the TGI (HOP-62 NSCLC)?
Answer: > 100 µM

Question: What about the TGI (UACC-257 melanoma) of the same compound?
Answer: > 100 µM

Question: And the TGI (NCI-H226 lung)?
Answer: > 100 µM

Question: What about the TGI (SNB-75 CNS) of the same compound?
Answer: > 100 µM

Question: And the TGI (NCI/ADR-RES ovarian)?
Answer: > 100 µM

Question: And the TGI (MDA-MB-231 breast)?
Answer: > 100 µM

Question: What about the TGI (CAKI-1 renal) of the same compound?
Answer: > 100 µM

Question: What about the TGI (A498 renal) of the same compound?
Answer: > 100 µM

Question: What about the TGI (IGROV1 ovarian) of the same compound?
Answer: > 100 µM

Question: How did the TGI (MALME-3M melanoma) turn out when `CC[N+](C)(CC)CCC(O)(c1ccccc1)c1ccccc1` was run?
Answer: > 100 µM

Question: And the TGI (HOP-62 NSCLC)?
Answer: > 100 µM

Question: And the TGI (UACC-257 melanoma)?
Answer: > 100 µM

Question: What about the TGI (NCI-H226 lung) of the same compound?
Answer: > 100 µM

Question: And the TGI (SNB-75 CNS)?
Answer: > 100 µM

Question: And the TGI (NCI/ADR-RES ovarian)?
Answer: > 100 µM

Question: What about the TGI (MDA-MB-231 breast) of the same compound?
Answer: > 100 µM

Question: And the TGI (A498 renal)?
Answer: > 100 µM

Question: And the TGI (IGROV1 ovarian)?
Answer: > 100 µM

Question: With `COc1ccc(/C=c2\[nH]c3nc(=O)c(N4CCOCC4)c(N)n3c2=O)cc1` as the compound, how does the TGI (MALME-3M melanoma) read?
Answer: > 100 µM

Question: And the TGI (UACC-257 melanoma)?
Answer: > 100 µM

Question: What about the TGI (NCI-H226 lung) of the same compound?
Answer: > 100 µM

Question: What about the TGI (SNB-75 CNS) of the same compound?
Answer: 64.5 µM

Question: What about the TGI (NCI/ADR-RES ovarian) of the same compound?
Answer: > 100 µM

Question: And the TGI (MDA-MB-231 breast)?
Answer: > 100 µM

Question: What about the TGI (CAKI-1 renal) of the same compound?
Answer: > 100 µM

Question: And the TGI (A498 renal)?
Answer: > 100 µM

Question: What about the TGI (IGROV1 ovarian) of the same compound?
Answer: > 100 µM

Question: What does the source list for `Cc1cc(C)c(P2C(=C(O[Si](C(C)C)(C(C)C)C(C)C)C(C)(C)C)C2(c2ccccc2)c2ccccc2)c(C)c1` (stereo unspecified)?
Answer: TGI (HOP-62 NSCLC): > 100 µM; TGI (UACC-257 melanoma): > 100 µM; TGI (NCI-H226 lung): > 100 µM; TGI (SNB-75 CNS): > 100 µM; TGI (NCI/ADR-RES ovarian): > 100 µM; TGI (MDA-MB-231 breast): > 100 µM; TGI (CAKI-1 renal): > 100 µM; TGI (A498 renal): > 100 µM; TGI (IGROV1 ovarian): > 100 µM

Question: How did the TGI (MALME-3M melanoma) turn out when `CN1CCN(c2c(Cl)cc(Cl)c3[nH]c4ccccc4c(=O)c23)CC1` was run?
Answer: 6.67 µM

Question: And the TGI (HOP-62 NSCLC)?
Answer: 19.5 µM

Question: What about the TGI (UACC-257 melanoma) of the same compound?
Answer: 22.1 µM

Question: And the TGI (NCI-H226 lung)?
Answer: 23 µM

Question: What about the TGI (SNB-75 CNS) of the same compound?
Answer: 22.5 µM

Question: And the TGI (NCI/ADR-RES ovarian)?
Answer: 28.9 µM

Question: And the TGI (MDA-MB-231 breast)?
Answer: 28.7 µM

Question: What about the TGI (CAKI-1 renal) of the same compound?
Answer: 20.6 µM

Question: What about the TGI (A498 renal) of the same compound?
Answer: 5.44 µM

Question: What about the TGI (IGROV1 ovarian) of the same compound?
Answer: 20.3 µM

Question: What does the source list for `N/N=C1/C2CN3CCN(C2)CC1(c1ccc([N+](=O)[O-])cc1)C3`?
Answer: TGI (MALME-3M melanoma): > 100 µM; TGI (HOP-62 NSCLC): > 100 µM; TGI (UACC-257 melanoma): > 100 µM; TGI (NCI-H226 lung): > 100 µM; TGI (SNB-75 CNS): > 100 µM; TGI (NCI/ADR-RES ovarian): > 100 µM; TGI (MDA-MB-231 breast): > 100 µM; TGI (CAKI-1 renal): > 100 µM; TGI (A498 renal): > 100 µM; TGI (IGROV1 ovarian): > 100 µM

Question: How did the TGI (HOP-62 NSCLC) turn out when `CC(=O)/C(=C/n1c(=S)[nH]c2ccccc21)C(=O)Nc1ccccc1C` was run?
Answer: > 100 µM

Question: What about the TGI (UACC-257 melanoma) of the same compound?
Answer: > 100 µM

Question: And the TGI (NCI-H226 lung)?
Answer: > 100 µM

Question: And the TGI (SNB-75 CNS)?
Answer: > 100 µM

Question: And the TGI (NCI/ADR-RES ovarian)?
Answer: > 100 µM

Question: And the TGI (MDA-MB-231 breast)?
Answer: > 100 µM

Question: What about the TGI (CAKI-1 renal) of the same compound?
Answer: > 100 µM

Question: What about the TGI (A498 renal) of the same compound?
Answer: > 100 µM

Question: And the TGI (IGROV1 ovarian)?
Answer: > 100 µM

Question: For `COc1ccc(N(C)C(=O)N(C)c2ccc([N+](=O)[O-])cc2)cc1`, which TGI (MALME-3M melanoma) is on record?
Answer: > 100 µM

Question: And the TGI (HOP-62 NSCLC)?
Answer: > 100 µM

Question: And the TGI (UACC-257 melanoma)?
Answer: > 100 µM

Question: What about the TGI (NCI-H226 lung) of the same compound?
Answer: > 100 µM

Question: What about the TGI (SNB-75 CNS) of the same compound?
Answer: > 100 µM

Question: What about the TGI (NCI/ADR-RES ovarian) of the same compound?
Answer: 68.4 µM

Question: What about the TGI (MDA-MB-231 breast) of the same compound?
Answer: > 100 µM

Question: And the TGI (CAKI-1 renal)?
Answer: > 100 µM

Question: And the TGI (A498 renal)?
Answer: > 100 µM

Question: And the TGI (IGROV1 ovarian)?
Answer: > 100 µM

Question: For `COc1cc2nc(-c3ccc4ccccc4c3)[nH]c(=O)c2cc1OC`, which TGI (MALME-3M melanoma) is on record?
Answer: > 100 µM

Question: What about the TGI (HOP-62 NSCLC) of the same compound?
Answer: 84.3 µM

Question: And the TGI (UACC-257 melanoma)?
Answer: > 100 µM

Question: And the TGI (NCI-H226 lung)?
Answer: > 100 µM

Question: And the TGI (SNB-75 CNS)?
Answer: 58.3 µM

Question: What about the TGI (NCI/ADR-RES ovarian) of the same compound?
Answer: > 100 µM

Question: What about the TGI (MDA-MB-231 breast) of the same compound?
Answer: > 100 µM

Question: What about the TGI (CAKI-1 renal) of the same compound?
Answer: > 100 µM

Question: What about the TGI (A498 renal) of the same compound?
Answer: > 100 µM

Question: What about the TGI (IGROV1 ovarian) of the same compound?
Answer: > 100 µM

Question: With `COC1OC(Cc2nnc(C)o2)C(OCc2ccccc2)C(OCc2ccccc2)C1OCc1ccccc1` (stereo unspecified) as the compound, how does the TGI (MALME-3M melanoma) read?
Answer: 38.9 µM

Question: What about the TGI (HOP-62 NSCLC) of the same compound?
Answer: > 100 µM

Question: And the TGI (UACC-257 melanoma)?
Answer: 36.9 µM

Question: What about the TGI (NCI-H226 lung) of the same compound?
Answer: 95.6 µM

Question: And the TGI (SNB-75 CNS)?
Answer: > 100 µM

Question: And the TGI (NCI/ADR-RES ovarian)?
Answer: 70 µM

Question: And the TGI (MDA-MB-231 breast)?
Answer: > 100 µM

Question: And the TGI (CAKI-1 renal)?
Answer: > 100 µM

Question: And the TGI (A498 renal)?
Answer: > 100 µM

Question: What about the TGI (IGROV1 ovarian) of the same compound?
Answer: 52.4 µM
